Measured values reported in patent publication US20250281649A1, “PROBE DIRECTED TO ENZYME ALDH1A3 AND USE THEREOF IN THE DIAGNOSIS OF GLIOBLASTOMA” (Universita' Degli Studi Del Piemonte Orientale "A. Avogadro", priority 2021, published 2025).

Columns and labels:
Test in all cases: KD evaluation by probe fluorescence (Tecan SPARK)
Assay type in all cases: binding
ALDH1A1 = biological target: T1, ALDH1A1 (Homo sapiens, UniProt P00352); conditions: probe fixed at 10 μM, isoenzyme 100 μM to 1 μM
T1 construct: His-tag; made in house; host or cells: bacterial cells
T1 sequence (P00352 1-501): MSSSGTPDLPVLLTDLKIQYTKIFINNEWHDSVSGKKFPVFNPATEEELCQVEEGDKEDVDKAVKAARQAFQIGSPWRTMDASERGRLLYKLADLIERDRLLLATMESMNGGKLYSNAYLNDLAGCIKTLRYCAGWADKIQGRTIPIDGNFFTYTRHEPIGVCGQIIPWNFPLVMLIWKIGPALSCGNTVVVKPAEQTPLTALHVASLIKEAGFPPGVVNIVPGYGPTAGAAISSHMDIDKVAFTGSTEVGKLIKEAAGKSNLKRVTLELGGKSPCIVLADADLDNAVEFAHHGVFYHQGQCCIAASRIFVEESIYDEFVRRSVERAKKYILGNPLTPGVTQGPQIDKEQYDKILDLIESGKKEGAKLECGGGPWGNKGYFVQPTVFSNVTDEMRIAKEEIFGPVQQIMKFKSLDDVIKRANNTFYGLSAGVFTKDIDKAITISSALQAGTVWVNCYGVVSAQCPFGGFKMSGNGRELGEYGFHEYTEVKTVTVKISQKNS
Procedure: (§1) A common protocol to express and purify all three members of the ALDHIA subfamily has been optimized. Briefly, induced cells, collected by centrifugation, were re-suspended in an appropriate volume of lysis buffer (50 mM Na2HPO4, 300 mM NaCl, 1 mM β-mercaptoethanol, 20 mM imidazole, pH 7.5) added of benzonase nuclease (250 U/μL) and Protease inhibitor cocktail from SIGMA. After ultracentrifugation, the clarified sample was purified by a His-tag affinity chromatography followed by size-exclusion chromatography, using an AKTA FPLC system, at 4° C. To evaluate the purity and homogeneity of the protein, after each purification step, eluted d fractions were analyzed by SDS-PAGE and the protein quantification was always determined by Bradford protein assay.
(§2) KD evaluation: on a Tecan—SPARK, probe 14 and 13 were tested at a fixed concentration of 10 μM. All the isoenzymes were tested in wide range of concentrations (from 100 μM to 1 μM). The analysis was settled with a BW of 20, monitoring the Em wavelength in range comprised between 520 and 535 nm for probe 14 and 520 and 580 nm for probe 13. The Ex was fixed at 420 nm for probe 14 and 440 nm for probe 13. The test was performed in quadruplicate with all the three isoenzymes. The recipe of the buffer reaction was the same as described before.

ALDH1A2 = biological target: T2, ALDH1A2 (Homo sapiens, UniProt O94788); conditions: probe fixed at 10 μM, isoenzyme 100 μM to 1 μM
T2 construct: His-tag; made in house; host or cells: bacterial cells
T2 sequence (O94788 1-518): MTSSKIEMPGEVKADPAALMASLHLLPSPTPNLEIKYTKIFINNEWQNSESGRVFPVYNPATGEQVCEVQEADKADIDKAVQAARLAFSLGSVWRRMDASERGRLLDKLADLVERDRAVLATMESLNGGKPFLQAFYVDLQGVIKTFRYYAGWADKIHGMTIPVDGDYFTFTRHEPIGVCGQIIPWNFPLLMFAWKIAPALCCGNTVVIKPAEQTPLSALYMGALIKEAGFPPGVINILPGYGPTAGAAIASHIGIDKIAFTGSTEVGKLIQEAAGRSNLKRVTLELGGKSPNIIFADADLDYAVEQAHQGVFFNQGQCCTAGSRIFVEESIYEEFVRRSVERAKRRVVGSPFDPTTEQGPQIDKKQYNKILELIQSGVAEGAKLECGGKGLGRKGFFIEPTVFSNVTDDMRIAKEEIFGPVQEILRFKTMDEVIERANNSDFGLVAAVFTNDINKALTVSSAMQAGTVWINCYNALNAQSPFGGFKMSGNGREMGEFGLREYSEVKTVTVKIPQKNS
Procedure: as §1, §2

ALDH1A3 = biological target: T3, ALDH1A3 (Homo sapiens, UniProt P47895); conditions: ALDH1A3; probe fixed at 10 μM, isoenzyme 100 μM to 1 μM; read-out: KD
T3 construct: His-tag; made in house; host or cells: bacterial cells
T3 sequence (P47895 1-512): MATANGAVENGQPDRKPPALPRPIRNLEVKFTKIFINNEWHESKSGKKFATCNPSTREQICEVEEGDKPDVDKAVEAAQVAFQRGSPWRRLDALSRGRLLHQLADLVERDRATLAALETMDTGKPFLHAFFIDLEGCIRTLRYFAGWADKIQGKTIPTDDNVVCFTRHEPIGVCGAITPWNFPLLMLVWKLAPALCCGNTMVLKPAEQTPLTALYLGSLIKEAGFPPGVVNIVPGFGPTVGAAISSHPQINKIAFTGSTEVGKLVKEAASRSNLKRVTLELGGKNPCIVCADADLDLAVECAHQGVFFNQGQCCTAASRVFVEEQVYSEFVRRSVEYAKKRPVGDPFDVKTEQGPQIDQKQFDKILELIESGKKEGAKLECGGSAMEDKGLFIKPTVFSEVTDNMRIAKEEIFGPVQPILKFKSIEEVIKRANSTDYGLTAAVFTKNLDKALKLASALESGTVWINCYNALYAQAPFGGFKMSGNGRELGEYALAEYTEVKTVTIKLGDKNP
Procedure: as §1, §2

Row | Compound | Kd (ALDH1A1) [µM] | Kd (ALDH1A2) [µM] | Kd (ALDH1A3) [µM]
1 | COc1cc(/C=C/C(=O)/C=C(O)/C=C/c2ccc(OCc3cn(CCOc4ccc(C=O)cc4)nn3)c(OC)c2)ccc1O [Compound 13] | 31.1 | 36.9 | 38.2
2 | CCOC(=O)Cn1cc(COc2ccc(/C=C/C(O)=C/C(=O)/C=C/c3ccc(O)c(OC)c3)cc2OC)nn1 [Compound 14] | 42.4 | 125 | 84.3
